Test [1] deals with T1, Muscarinic acetylcholine receptor M2 (Rattus norvegicus, UniProt P10980).
T1 sequence (P10980 whole entry): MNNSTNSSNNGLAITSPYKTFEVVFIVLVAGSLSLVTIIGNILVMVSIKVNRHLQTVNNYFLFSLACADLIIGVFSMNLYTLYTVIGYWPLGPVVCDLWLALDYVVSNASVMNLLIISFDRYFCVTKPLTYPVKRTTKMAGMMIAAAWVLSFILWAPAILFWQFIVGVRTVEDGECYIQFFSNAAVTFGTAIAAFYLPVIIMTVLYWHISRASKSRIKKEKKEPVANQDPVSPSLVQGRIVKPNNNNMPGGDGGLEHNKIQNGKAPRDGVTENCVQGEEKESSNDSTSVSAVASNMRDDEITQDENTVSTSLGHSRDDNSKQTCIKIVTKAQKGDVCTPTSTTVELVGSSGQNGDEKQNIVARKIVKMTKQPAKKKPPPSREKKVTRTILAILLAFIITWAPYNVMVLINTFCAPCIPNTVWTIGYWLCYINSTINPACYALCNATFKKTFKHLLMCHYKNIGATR

Test [2] has as its target T2, Muscarinic acetylcholine receptor M4 (Homo sapiens, UniProt P08173).
T2 sequence (P08173 whole entry): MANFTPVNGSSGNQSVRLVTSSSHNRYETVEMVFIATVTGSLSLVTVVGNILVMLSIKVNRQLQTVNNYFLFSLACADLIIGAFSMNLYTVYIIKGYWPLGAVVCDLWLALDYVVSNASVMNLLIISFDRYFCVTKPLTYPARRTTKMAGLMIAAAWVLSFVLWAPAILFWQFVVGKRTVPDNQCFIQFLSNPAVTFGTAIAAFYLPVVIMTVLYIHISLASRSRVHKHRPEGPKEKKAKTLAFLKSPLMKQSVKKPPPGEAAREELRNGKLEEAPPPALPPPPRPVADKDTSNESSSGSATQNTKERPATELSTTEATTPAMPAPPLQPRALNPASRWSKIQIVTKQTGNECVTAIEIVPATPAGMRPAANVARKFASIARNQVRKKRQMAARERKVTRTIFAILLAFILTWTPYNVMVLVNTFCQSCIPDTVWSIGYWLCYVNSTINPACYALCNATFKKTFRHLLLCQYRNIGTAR

Test [3] has as its target T3, Muscarinic acetylcholine receptor M5 (Homo sapiens, UniProt P08912).
T3 sequence (P08912 whole entry): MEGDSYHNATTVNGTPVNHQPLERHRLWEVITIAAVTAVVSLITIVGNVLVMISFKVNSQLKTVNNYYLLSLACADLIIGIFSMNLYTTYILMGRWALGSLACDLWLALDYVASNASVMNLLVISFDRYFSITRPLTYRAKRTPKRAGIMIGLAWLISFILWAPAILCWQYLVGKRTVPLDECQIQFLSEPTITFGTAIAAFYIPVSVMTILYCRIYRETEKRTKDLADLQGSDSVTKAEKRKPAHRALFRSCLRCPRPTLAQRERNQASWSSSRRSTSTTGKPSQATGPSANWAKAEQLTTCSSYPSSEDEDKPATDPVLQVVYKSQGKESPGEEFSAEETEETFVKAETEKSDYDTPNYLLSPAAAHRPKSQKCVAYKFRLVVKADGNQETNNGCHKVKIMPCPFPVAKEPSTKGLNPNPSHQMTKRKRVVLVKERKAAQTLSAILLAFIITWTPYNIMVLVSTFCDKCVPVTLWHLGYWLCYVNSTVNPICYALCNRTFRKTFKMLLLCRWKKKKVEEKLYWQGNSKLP

Test [4] deals with Muscarinic acetylcholine receptor M3 (Homo sapiens, UniProt P20309).
Sequence of Muscarinic acetylcholine receptor M3 (P20309 whole entry): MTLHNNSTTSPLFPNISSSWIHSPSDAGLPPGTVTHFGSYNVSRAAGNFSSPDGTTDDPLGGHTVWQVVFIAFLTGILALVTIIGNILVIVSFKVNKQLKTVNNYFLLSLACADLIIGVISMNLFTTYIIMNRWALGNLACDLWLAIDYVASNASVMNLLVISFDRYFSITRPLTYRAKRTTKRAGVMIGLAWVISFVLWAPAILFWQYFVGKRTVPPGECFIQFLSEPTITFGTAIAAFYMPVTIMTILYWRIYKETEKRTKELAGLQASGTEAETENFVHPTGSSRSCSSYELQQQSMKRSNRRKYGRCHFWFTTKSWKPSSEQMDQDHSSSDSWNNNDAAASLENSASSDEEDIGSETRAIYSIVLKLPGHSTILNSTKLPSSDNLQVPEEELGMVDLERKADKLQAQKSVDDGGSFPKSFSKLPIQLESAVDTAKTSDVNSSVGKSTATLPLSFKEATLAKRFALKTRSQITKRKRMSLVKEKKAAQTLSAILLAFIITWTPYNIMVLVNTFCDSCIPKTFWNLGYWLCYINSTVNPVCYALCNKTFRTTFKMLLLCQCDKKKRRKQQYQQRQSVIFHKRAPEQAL
The target of test [5] is T4, Muscarinic acetylcholine receptor M1 (Homo sapiens, UniProt P11229).
T4 sequence (P11229 whole entry): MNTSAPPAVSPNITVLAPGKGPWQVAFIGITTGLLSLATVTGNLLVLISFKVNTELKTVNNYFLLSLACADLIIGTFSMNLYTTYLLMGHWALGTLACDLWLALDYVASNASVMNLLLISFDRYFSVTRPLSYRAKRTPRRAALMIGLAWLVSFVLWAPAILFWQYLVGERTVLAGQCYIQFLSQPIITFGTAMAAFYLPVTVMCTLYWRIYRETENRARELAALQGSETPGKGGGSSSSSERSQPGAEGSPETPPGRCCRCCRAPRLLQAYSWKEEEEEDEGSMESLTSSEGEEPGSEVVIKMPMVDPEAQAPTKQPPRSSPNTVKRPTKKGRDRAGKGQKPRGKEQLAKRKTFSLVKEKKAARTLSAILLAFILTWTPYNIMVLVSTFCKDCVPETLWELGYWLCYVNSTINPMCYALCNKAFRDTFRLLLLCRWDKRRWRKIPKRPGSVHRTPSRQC

The target of test [6] is T5, Muscarinic acetylcholine receptor M2 (Homo sapiens, UniProt P08172).
T5 sequence (P08172 whole entry): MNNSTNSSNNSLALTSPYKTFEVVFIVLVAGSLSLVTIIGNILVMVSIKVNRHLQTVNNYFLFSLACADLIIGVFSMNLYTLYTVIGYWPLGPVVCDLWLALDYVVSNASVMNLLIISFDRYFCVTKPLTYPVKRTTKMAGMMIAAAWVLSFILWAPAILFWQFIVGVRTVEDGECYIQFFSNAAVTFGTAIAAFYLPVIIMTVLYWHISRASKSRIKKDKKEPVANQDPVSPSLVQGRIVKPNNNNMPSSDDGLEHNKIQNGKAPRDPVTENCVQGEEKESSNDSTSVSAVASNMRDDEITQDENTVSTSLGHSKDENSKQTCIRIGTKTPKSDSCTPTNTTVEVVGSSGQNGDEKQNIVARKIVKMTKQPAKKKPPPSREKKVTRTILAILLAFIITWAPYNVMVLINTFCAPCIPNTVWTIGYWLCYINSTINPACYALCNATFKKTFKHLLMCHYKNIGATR

pKi: −log10 of the molar value.

`C(#Cc1cccc(C#CCOc2nsnc2C2CN3CCC2CC3)c1)COc1nsnc1C1CN2CCC1CC2` (stereo unspecified) [NNC 11-1607]: the pKi in test [1] is 8.02; in test [2], 8.09; in test [3] it was 8.22; in test [4] it was 8.09; in test [5], 8.62; in test [6], 8.24.
For `C(#Cc1ccccc1)COc1nsnc1C1CN2CCC1CC2` (stereo unspecified), the pKi in test [2] was 7.31; in test [3], 7.83; in test [4], 7.11; in test [5] it was 7.38; in test [6], 7.23.
The like results for `C(#Cc1ccc(C#CCOc2nsnc2C2CN3CCC2CC3)cc1)COc1nsnc1C1CN2CCC1CC2` (stereo unspecified) [NNC 11-1585] were, in that order, 8.59, 8.28, 8.33, 9.89 and 10.10.

A word on the pKi: it is −log10 of the Ki, conventionally taken in molar units. Low readings indicate a high Ki, high ones a low Ki.

For the origin of these results see BindingDB's records for PubMed 11504829 (University of Melbourne, 2001).
